Source: patent US20080274892A1, “Novel Haloalkylsulfonanilide Derivative, Herbicide, and Method of Use Thereof” (priority 2005, published 2008)

How the values were obtained:
[1] = system: bulrush; assay: Test Example 2: herbicidal efficacy on rice paddy weeds post-emergence; type: in vivo, Scirpus juncoides; details: post-emergence, one leaf stage, 21 days after treatment
[2] = system: false pimpernel; assay: as above; type: in vivo, Lindernia pyxidaria; details: post-emergence, one leaf stage, 21 days after treatment
[3] = system: false pimpernel; assay: Test Example 1: herbicidal efficacy on rice paddy weeds pre-emergence; type: in vivo, Lindernia pyxidaria; details: 21 days
[4] = system: paddy rice plant (cultivar: Nihonbare); assay: Test Example 3: phytotoxicity test for transplanted paddy rice plant; type: in vivo; details: transplanted rice, 21 days after treatment
Procedure, shortened: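 Clay loam soil was placed in a 75 cm^2 plastic pot and flooded to a water depth of 5 cm. Two Nihonbare paddy rice plants at the two-leaf stage were transplanted 1 cm deep and grown in a hot house. After treatment, pots stayed in the hot house for 21 days, and phytotoxicity was then graded against an untreated control.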

[5] = system: bulrush; assay: Test Example 1: herbicidal efficacy on rice paddy weeds pre-emergence; type: in vivo, Scirpus juncoides; details: 21 days
[6] = system: barnyard glass; assay: Test Example 2: herbicidal efficacy on rice paddy weeds post-emergence; type: in vivo, Echinochloa crus-galli; details: post-emergence, one leaf stage, 21 days after treatment
Source text: The standard of judgment for herbicidal efficacy (degree of growth inhibition) and phytotoxicity 4 . . . 90%-100% of herbicidal efficacy or phytotoxicity 3 . . . 70%-89% of herbicidal efficacy or phytotoxicity 2 . . . 40%-69% of herbicidal efficacy or phytotoxicity 1 . . . 1%-39% of herbicidal efficacy or phytotoxicity 0 . . . 0% of herbicidal efficacy or phytotoxicity
A 75 cm^2 plastic pot was filled with soil (clay loam) and planted seeds of barnyard glass and bulrush which is a rice paddy weed. After covering the top with 75 cm^3 soil mixed with seeds of false pimpernel, the pot was filled with water so that the soil submerged under 5 cm depth of water and kept in a hot house. […] The pot was kept in a hot house for 21 days after the treatment and the herbicidal efficacy was investigated and evaluated according to the standard in Test Example 1 by comparing with the untreated control. “-” in the table represents test not done.

[7] = dosage 1000 g/ha, treated 5 days after transplantation

Compound	Bulrush post (herbicidal efficacy grade) ([1]; dosage 300 g/ha)	False pimpernel post (herbicidal efficacy grade) ([2]; dosage 300 g/ha)	False pimpernel pre (herbicidal efficacy grade) ([3]; dosage 300 g/ha)	Phytotoxicity to paddy rice ([4]; dosage 300 g/ha)	Bulrush pre (herbicidal efficacy grade) ([5]; dosage 300 g/ha)	Burnyard grass post (herbicidal efficacy grade) ([6]; dosage 300 g/ha)	Bulrush post (herbicidal efficacy grade) ([1]; dosage 1000 g/ha)	False pimpernel post (herbicidal efficacy grade) ([2]; dosage 1000 g/ha)	False pimpernel pre (herbicidal efficacy grade) ([3]; dosage 1000 g/ha)	Phytotoxicity to paddy rice [4, 7]	Bulrush pre (herbicidal efficacy grade) ([5]; dosage 1000 g/ha)	Burnyard grass post (herbicidal efficacy grade) ([6]; dosage 1000 g/ha)
COC1N(Cc2ccccc2NS(=O)(=O)C(F)(F)F)C(=O)OC1(C)C (stereo not drawn) [Compound No. 1-195, 4-methoxy-5,5-dimethyl-3-[2-(trifluoromethanesulfonylamino)benzyl]oxazolidin-2-one]	4 (90%-100% of herbicidal efficacy or phytotoxicity)	3 (70%-89% of herbicidal efficacy or phytotoxicity)	1 (1%-39% of herbicidal efficacy or phytotoxicity)	2 (40%-69% of herbicidal efficacy or phytotoxicity)	4 (90%-100% of herbicidal efficacy or phytotoxicity)	1 (1%-39% of herbicidal efficacy or phytotoxicity)						
CCCC1CN(Cc2ccccc2N(C(=O)OCC(C)C)S(=O)(=O)C(F)(F)F)C(=O)O1 (stereo not drawn) [Compound 1-30]							4 (90%-100% of herbicidal efficacy or phytotoxicity)	4 (90%-100% of herbicidal efficacy or phytotoxicity)	4 (90%-100% of herbicidal efficacy or phytotoxicity)	0 (0% of herbicidal efficacy or phytotoxicity)	4 (90%-100% of herbicidal efficacy or phytotoxicity)	4 (90%-100% of herbicidal efficacy or phytotoxicity)
CC1CCCC12CN(Cc1ccccc1NS(=O)(=O)C(F)(F)F)C(=O)O2 (stereo not drawn) [Compound 1-160]	4 (90%-100% of herbicidal efficacy or phytotoxicity)	4 (90%-100% of herbicidal efficacy or phytotoxicity)	4 (90%-100% of herbicidal efficacy or phytotoxicity)	1 (1%-39% of herbicidal efficacy or phytotoxicity)	4 (90%-100% of herbicidal efficacy or phytotoxicity)	4 (90%-100% of herbicidal efficacy or phytotoxicity)						
CCCCC1(C)CN(Cc2ccccc2N(C(=O)OCC(C)C)S(=O)(=O)C(F)(F)F)C(=O)O1 (racemic) [Compound 1-123]							4 (90%-100% of herbicidal efficacy or phytotoxicity)	4 (90%-100% of herbicidal efficacy or phytotoxicity)	4 (90%-100% of herbicidal efficacy or phytotoxicity)	1 (1%-39% of herbicidal efficacy or phytotoxicity)	4 (90%-100% of herbicidal efficacy or phytotoxicity)	4 (90%-100% of herbicidal efficacy or phytotoxicity)
CC(C)COC(=O)N(c1ccccc1CN1CC(CNC(=O)OC(C)(C)C)OC1=O)S(=O)(=O)C(F)(F)F (racemic) [Compound 1-107]	4 (90%-100% of herbicidal efficacy or phytotoxicity)	1 (1%-39% of herbicidal efficacy or phytotoxicity)	4 (90%-100% of herbicidal efficacy or phytotoxicity)	0 (0% of herbicidal efficacy or phytotoxicity)	4 (90%-100% of herbicidal efficacy or phytotoxicity)	3 (70%-89% of herbicidal efficacy or phytotoxicity)						
CC(C)COC(=O)N(c1ccccc1CN1CC2(CCCC2C)OC1=O)S(=O)(=O)C(F)(F)F (stereo not drawn) [Compound 1-161]							4 (90%-100% of herbicidal efficacy or phytotoxicity)	4 (90%-100% of herbicidal efficacy or phytotoxicity)	4 (90%-100% of herbicidal efficacy or phytotoxicity)	1 (1%-39% of herbicidal efficacy or phytotoxicity)	4 (90%-100% of herbicidal efficacy or phytotoxicity)	4 (90%-100% of herbicidal efficacy or phytotoxicity)
CC[C@H]1CN(Cc2ccccc2N(C(=O)OCC(C)C)S(=O)(=O)C(F)(F)F)C(=O)O1 [Compound 1-56]	4 (90%-100% of herbicidal efficacy or phytotoxicity)	3 (70%-89% of herbicidal efficacy or phytotoxicity)	4 (90%-100% of herbicidal efficacy or phytotoxicity)	1 (1%-39% of herbicidal efficacy or phytotoxicity)	4 (90%-100% of herbicidal efficacy or phytotoxicity)	4 (90%-100% of herbicidal efficacy or phytotoxicity)						
CC(C)COC(=O)N(c1ccccc1CN1C(=O)OCC1C(C)C)S(=O)(=O)C(F)(F)F (stereo not drawn) [Compound 1-10]							4 (90%-100% of herbicidal efficacy or phytotoxicity)	4 (90%-100% of herbicidal efficacy or phytotoxicity)	4 (90%-100% of herbicidal efficacy or phytotoxicity)	1 (1%-39% of herbicidal efficacy or phytotoxicity)	4 (90%-100% of herbicidal efficacy or phytotoxicity)	4 (90%-100% of herbicidal efficacy or phytotoxicity)
O=C1OC2(CCCCC2)CN1Cc1ccccc1NS(=O)(=O)C(F)(F)F [Compound 1-45]							4 (90%-100% of herbicidal efficacy or phytotoxicity)	4 (90%-100% of herbicidal efficacy or phytotoxicity)	4 (90%-100% of herbicidal efficacy or phytotoxicity)	2 (40%-69% of herbicidal efficacy or phytotoxicity)	4 (90%-100% of herbicidal efficacy or phytotoxicity)	4 (90%-100% of herbicidal efficacy or phytotoxicity)
CCC1(C)CN(Cc2ccccc2N(C(=O)OC)S(=O)(=O)C(F)(F)F)C(=S)O1 (stereo not drawn) [Compound 1-182]							4 (90%-100% of herbicidal efficacy or phytotoxicity)	4 (90%-100% of herbicidal efficacy or phytotoxicity)	4 (90%-100% of herbicidal efficacy or phytotoxicity)	1 (1%-39% of herbicidal efficacy or phytotoxicity)	4 (90%-100% of herbicidal efficacy or phytotoxicity)	4 (90%-100% of herbicidal efficacy or phytotoxicity)
CC(C)COC(=O)N(c1ccccc1CN1C(=O)SC(C)C1=O)S(=O)(=O)C(F)(F)F (stereo not drawn) [Compound 1-200]							3 (70%-89% of herbicidal efficacy or phytotoxicity)	3 (70%-89% of herbicidal efficacy or phytotoxicity)	2 (40%-69% of herbicidal efficacy or phytotoxicity)	0 (0% of herbicidal efficacy or phytotoxicity)	4 (90%-100% of herbicidal efficacy or phytotoxicity)	1 (1%-39% of herbicidal efficacy or phytotoxicity)
CC(C)COC(=O)N(c1ccccc1CN1C(=O)OC(C)(C)C1(C)C)S(=O)(=O)C(F)(F)F [Compound 1-74]							4 (90%-100% of herbicidal efficacy or phytotoxicity)	4 (90%-100% of herbicidal efficacy or phytotoxicity)	4 (90%-100% of herbicidal efficacy or phytotoxicity)	4 (90%-100% of herbicidal efficacy or phytotoxicity)	4 (90%-100% of herbicidal efficacy or phytotoxicity)	4 (90%-100% of herbicidal efficacy or phytotoxicity)
